The target in one assay is histamine receptor H1 (Homo sapiens, UniProt P35367). As to the kind of experiment: Histamine H1 radioligand binding ([3H]Pyrilamine). Summed up:
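Values are percent inhibition of specific [3H]pyrilamine (1.2 nM) binding with compounds at ≤1 μM (1% DMSO vehicle); 180 min incubation at 25 °C, pH 7.4 Tris buffer, on CHO-expressed human H1 receptor; 1 μM pyrilamine defined nonspecific binding, bound ligand counted after filtration.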

In assay [1] the target is human dopamine D2L receptor (Homo sapiens, UniProt P14416). As to the kind of experiment: Dopamine D2L radioligand binding ([3H]Spiperone). The source says:
Non-specific binding was estimated in the presence of […] Haloperidol. Receptor proteins were filtered and washed, the filters were then counted to determine [^3H]Spiperone specifically bound. […] Biochemical assay results are presented as the percent inhibition of specific binding in Table 9.

Assay [2] addresses T1, human recombinant histamine H2 receptor (Homo sapiens, UniProt P25021).
T1 construct: expressed in transfected cells; host or cells: Chinese hamster ovary (CHO) K1 cells
As to the kind of experiment: Histamine H2 radioligand binding ([125I]Aminopotentidine). An outline of the steps: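 Receptor source: human recombinant H2 in CHO-K1 cells, assayed in 50 mM phosphate pH 7.4. Competition against 0.1 nM [125I]aminopotentidine, 120 min, 25 °C; 3 μM tiotidine sets nonspecific binding, filter-bound counts give specific binding.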

The target of assay [3] is T2, human recombinant adrenergic α2A receptor (Homo sapiens, UniProt P08913).
T2 construct: expressed in transfected cells; host or cells: insect Sf9 cells
T2 sequence (P08913 1-465): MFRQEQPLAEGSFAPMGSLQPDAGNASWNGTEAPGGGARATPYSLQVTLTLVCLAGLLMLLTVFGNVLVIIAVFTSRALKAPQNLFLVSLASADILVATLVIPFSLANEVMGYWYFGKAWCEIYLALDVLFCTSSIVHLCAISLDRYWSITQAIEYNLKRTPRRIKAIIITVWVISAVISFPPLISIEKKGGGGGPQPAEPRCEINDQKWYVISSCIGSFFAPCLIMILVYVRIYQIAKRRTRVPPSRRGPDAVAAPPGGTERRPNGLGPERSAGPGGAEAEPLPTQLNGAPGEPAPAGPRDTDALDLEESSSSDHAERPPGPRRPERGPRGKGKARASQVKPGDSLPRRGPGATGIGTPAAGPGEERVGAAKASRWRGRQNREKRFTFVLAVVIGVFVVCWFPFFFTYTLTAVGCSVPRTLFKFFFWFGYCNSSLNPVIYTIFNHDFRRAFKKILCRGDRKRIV
As to the kind of experiment: Adrenergic α2A radioligand binding ([3H]MK-912). Summed up:
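Sf9-expressed human receptor in 50 mM Tris-HCl pH 7.4, 12.5 mM MgCl2, 2 mM EDTA; compounds at 1 μM or lower (1% DMSO) incubated with 1 nM [3H]MK-912 for 60 min at 25° C. Non-specific binding defined with 10 μM WB-4101; filtered bound radioactivity counted, reported as percent inhibition of specific binding.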

The target in assay [4] is T3, human recombinant adrenergic α2B receptor (Homo sapiens, UniProt P18089).
T3 construct: expressed in transfected cells; host or cells: Chinese hamster ovary (CHO-K1) cells
T3 sequence (P18089 1-450): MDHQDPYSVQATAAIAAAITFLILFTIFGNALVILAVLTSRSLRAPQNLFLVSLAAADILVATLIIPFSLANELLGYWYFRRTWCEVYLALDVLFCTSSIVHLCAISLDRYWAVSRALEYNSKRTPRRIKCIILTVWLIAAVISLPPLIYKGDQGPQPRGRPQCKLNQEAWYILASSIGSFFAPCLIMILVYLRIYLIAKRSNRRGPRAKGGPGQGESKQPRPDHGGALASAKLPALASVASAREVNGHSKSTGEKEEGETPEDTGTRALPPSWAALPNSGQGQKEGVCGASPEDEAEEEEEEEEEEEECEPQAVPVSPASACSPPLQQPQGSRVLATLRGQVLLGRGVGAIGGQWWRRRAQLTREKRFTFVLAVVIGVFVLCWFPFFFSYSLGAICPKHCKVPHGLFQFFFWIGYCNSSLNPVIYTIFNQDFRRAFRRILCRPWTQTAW
As to the kind of experiment: Adrenergic α2B radioligand binding ([3H]Rauwolscine). Summed up:
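Membranes from CHO-K1 cells expressing the receptor were incubated with 2.5 nM [3H]Rauwolscine for 60 min at 25 °C in Tris-HCl buffer pH 7.4 with MgCl2, EDTA and BSA. Non-specific binding was defined with 10 μM prazosin. Compounds were tested at ≤1 μM in 1% DMSO and read out as % inhibition of specific binding after filtration.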

The mark [5] stands for this setting: read-out: Histamine Binding (1 μM) H1, percent inhibition of specific binding, 1 μM.
Where [6] appears, read: percent inhibition of specific binding, compound at 1 μM, read-out: Inhibition of ligand binding, Dopamine D2L.
Setting [7] is: read-out: Histamine Binding (1 μM) H2, percent inhibition of specific binding, 1 μM.
Setting [8] is: percent inhibition of specific binding, compound at 1 μM, read-out: Inhibition of ligand binding, Adrenergic α2A.
The mark [9] stands for this setting: percent inhibition of specific binding, compound at 1 μM, read-out: Inhibition of ligand binding, Adrenergic α2B.
Where [10] appears, read: compound at 1 μM, […] [3H]Spiperone, read-out: Inhibition of ligand binding, Dopamine D2L (percent inhibition of specific binding).
The mark [11] stands for this setting: compound at 1 μM, read-out: Inhibition of ligand binding, Adrenergic α2A (percent inhibition of specific binding).
Setting [12] is: compound at 1 μM, […] [3H]Rauwolscine, read-out: Inhibition of ligand binding, Adrenergic α2B (percent inhibition of specific binding).
Where [13] appears, read: percent inhibition of specific binding, compound at 1 μM, 1 µM.

Experimental findings from patent US8906925B2, “Pyrido[4,3-B]indoles containing rigid moieties” (Medivation Technologies, Inc., priority 2008, dated 2014) are described below.

Each structure is given as a SMILES string. Like-named read-outs stand apart in the source and are kept apart here.

Chain of histamine receptor H1 (P35367 whole entry): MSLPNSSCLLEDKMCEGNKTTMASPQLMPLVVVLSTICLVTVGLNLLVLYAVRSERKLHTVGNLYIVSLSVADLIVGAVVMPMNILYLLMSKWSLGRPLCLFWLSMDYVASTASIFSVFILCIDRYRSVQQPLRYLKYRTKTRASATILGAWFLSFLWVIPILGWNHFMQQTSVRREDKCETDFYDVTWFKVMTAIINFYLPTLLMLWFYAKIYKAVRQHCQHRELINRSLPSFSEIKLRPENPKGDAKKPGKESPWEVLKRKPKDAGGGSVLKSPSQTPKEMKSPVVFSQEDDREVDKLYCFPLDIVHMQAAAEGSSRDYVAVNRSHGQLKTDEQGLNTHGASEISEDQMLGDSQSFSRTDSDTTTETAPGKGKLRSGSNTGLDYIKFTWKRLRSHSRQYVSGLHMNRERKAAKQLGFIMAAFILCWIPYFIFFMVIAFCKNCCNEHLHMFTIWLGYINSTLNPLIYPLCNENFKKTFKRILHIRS
T1 sequence (P25021 whole entry): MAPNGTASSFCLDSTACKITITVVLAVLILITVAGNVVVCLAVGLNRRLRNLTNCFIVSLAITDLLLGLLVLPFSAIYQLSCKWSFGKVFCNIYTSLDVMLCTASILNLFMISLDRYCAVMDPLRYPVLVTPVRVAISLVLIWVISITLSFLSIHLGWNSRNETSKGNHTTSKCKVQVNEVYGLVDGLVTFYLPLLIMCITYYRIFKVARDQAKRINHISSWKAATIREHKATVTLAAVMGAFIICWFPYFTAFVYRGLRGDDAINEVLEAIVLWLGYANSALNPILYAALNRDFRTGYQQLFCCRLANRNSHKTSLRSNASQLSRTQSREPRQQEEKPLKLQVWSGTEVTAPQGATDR
Chain of human dopamine D2L receptor (P14416 whole entry): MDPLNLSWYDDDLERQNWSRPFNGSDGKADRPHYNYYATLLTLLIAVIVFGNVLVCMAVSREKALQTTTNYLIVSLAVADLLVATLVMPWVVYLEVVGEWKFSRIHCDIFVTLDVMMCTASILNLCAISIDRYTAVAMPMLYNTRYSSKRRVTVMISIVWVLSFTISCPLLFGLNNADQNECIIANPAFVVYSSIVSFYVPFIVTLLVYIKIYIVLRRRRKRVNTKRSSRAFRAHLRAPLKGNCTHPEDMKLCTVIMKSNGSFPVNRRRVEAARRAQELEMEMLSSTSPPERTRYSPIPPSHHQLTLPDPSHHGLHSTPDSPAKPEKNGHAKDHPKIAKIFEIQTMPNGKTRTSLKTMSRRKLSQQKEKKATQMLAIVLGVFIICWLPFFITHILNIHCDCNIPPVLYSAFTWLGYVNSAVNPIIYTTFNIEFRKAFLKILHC

One may read the inhibition as the change of the read-out against control, counted positive when it falls. `CN1CCc2c(c3cc(Cl)ccc3n2CC(C)(O)c2ccc(F)cc2)C1` (stereo not shown) [Compound 45, 1-(8-chloro-1,2,3,4-tetrahydro-2-methylpyrido[4,3-b]indol-5-yl)-2-(4-fluorophenyl)propan-2-ol]: the “Histamine Binding (1 μM) H1, percent inhibition of specific binding” value at histamine receptor H1 was found to be 73%. The inhibition at 1 µM was 65% at histamine receptor H1 (setting [5]); 34% in assay [1] (setting [6]); 94% in assay [2] (setting [7]); 89% in assay [3] (setting [8]); 109% in assay [4] (setting [9]).
As for `Cc1ccc(C(C)(O)Cn2c3c(c4cc(Cl)ccc42)CN(C)CC3)cn1` (stereo not shown) [Compound 47, 1-(8-chloro-1,2,3,4-tetrahydro-2-methylpyrido[4,3-b]indol-5-yl)-2-(6-methylpyridin-3-yl)propan-2-ol], the inhibition at 1 µM on histamine receptor H1 (setting [5]) was 33%; in assay [1] (setting [6]) it was 7%; in assay [2] (setting [7]), 48%; in assay [3] (setting [8]) it was 81%; in assay [4] (setting [9]) it was 106%.
For `CN1CCc2c(c3cc(Cl)ccc3n2CC(O)(c2ccc(F)cc2)C2CCC2)C1` (stereo not shown) [Compound 177, 2-(8-chloro-2-methyl-3,4-dihydro-1H-pyrido[4,3-b]indol-5(2H)-yl)-1-cyclobutyl-1-(4-fluorophenyl)ethanol], in that order: 83%, 33%, 101%, 96% and 94%.
Turning to `COc1ccc(C#Cn2c3c(c4cc(Cl)ccc42)CN(C)CC3)cc1F` [Compound No. 477, 8-chloro-5-((3-fluoro-4-methoxyphenyl)ethynyl)-2-methyl-2,3,4,5-tetrahydro-1H-pyrido[4,3-b]indole], the inhibition at 1 µM is 17% on histamine receptor H1 (setting [5]); 25% in assay [1] (setting [10]); 97% in assay [2] (setting [7]); 97% in assay [3] (setting [11]); 107% in assay [4] (setting [12]).
With `CNC(=O)C/C(=C\n1c2c(c3cc(C)ccc31)CN(C)CC2)c1ccc(F)cc1` [Compound 207, (E)-4-(2,8-dimethyl-3,4-dihydro-1H-pyrido[4,3-b]indol-5(2H)-yl)-3-(4-fluorophenyl)-N-methylbut-3-enamide], the inhibition at 1 µM amounted to 15% at histamine receptor H1 (setting [5]); 12% in assay [1] (setting [6]); 46% in assay [2] (setting [7]); 86% in assay [3] (setting [8]); 80% in assay [4] (setting [9]).
With `CN1CCc2c(c3cc(Cl)ccc3n2C/C(=C/CCO)c2ccc(F)cc2)C1` [Compound No. 349, (E)-5-(8-chloro-2-methyl-3,4-dihydro-1H-pyrido[4,3-b]indol-5(2H)-yl)-4-(4-fluorophenyl)pent-3-en-1-ol], the “Histamine Binding (1 μM) H1, percent inhibition of specific binding” value at histamine receptor H1 is 65%. Besides, the inhibition at 1 µM on histamine receptor H1 (setting [5]) was 53%; in assay [1] (setting [6]), 34%; in assay [2] (setting [7]), 84%; in assay [3] (setting [8]) it was 97%; in assay [4] (setting [9]) it was 102%. In assay [1] (setting [13]), the “Inhibition of ligand binding, Dopamine D2L” value stood at 46%.
Consider `CN1CCc2c(c3cc(Cl)ccc3n2CC(O)c2cccnc2)C1` (stereo not shown) [Compound 56, 2-(8-chloro-1,2,3,4-tetrahydro-2-methylpyrido[4,3-b]indol-5-yl)-1-(pyridin-3-yl)ethanol], for which the inhibition at 1 µM on histamine receptor H1 (setting [5]) came out at 90%; in assay [1] (setting [6]), 4%; in assay [2] (setting [7]), 26%; in assay [3] (setting [8]) it was 65%; in assay [4] (setting [9]), 112%.
Turning to `CCC(O)(Cn1c2c(c3cc(Cl)ccc31)CN(C)CC2)c1ccc(F)cc1` (stereo not shown) [Compound 78, 1-(8-chloro-1,2,3,4-tetrahydro-2-methylpyrido[4,3-b]indol-5-yl)-2-(4-fluorophenyl)butan-2-ol], on histamine receptor H1, the “Histamine Binding (1 μM) H1, percent inhibition of specific binding” value is 69%. The inhibition at 1 µM at histamine receptor H1 (setting [5]) stood at 52%; in assay [1] (setting [6]), 27%; in assay [2] (setting [7]), 89%; in assay [3] (setting [8]), 91%; in assay [4] (setting [9]) it was 87%. Moreover, in assay [1] (setting [13]), the “Inhibition of ligand binding, Dopamine D2L” value is on record as 33%.
`COc1ccc(C(C)(O)Cn2c3c(c4cc(C)ccc42)CN(C)CC3)cc1` (stereo not shown) [Compound 174, 1-(2,8-dimethyl-3,4-dihydro-1H-pyrido[4,3-b]indol-5(2H)-yl)-2-(4-methoxyphenyl)propan-2-ol]: the inhibition at 1 µM at histamine receptor H1 (setting [5]) stood at 34%; in assay [1] (setting [6]), 34%; in assay [2] (setting [7]), 80%; in assay [3] (setting [8]), 93%; in assay [4] (setting [9]), 88%. Also, the “Inhibition of ligand binding, Dopamine D2L” value in assay [1] (percent inhibition of specific binding, compound at 1 μM) was 34/34%.
As to `CCC/C=C(/Cn1c2c(c3cc(Cl)ccc31)CN(C)CC2)c1ccc(F)cc1` [Compound No. 351, (E)-8-chloro-5-(2-(4-fluorophenyl)hex-2-enyl)-2-methyl-2,3,4,5-tetrahydro-1H-pyrido[4,3-b]indole], on histamine receptor H1, the “Histamine Binding (1 μM) H1, percent inhibition of specific binding” value is recorded as 80%. For the same molecule, the inhibition at 1 µM on histamine receptor H1 (setting [5]) worked out at 78%; in assay [1] (setting [10]) it was 70%; in assay [2] (setting [7]), 100%; in assay [3] (setting [11]) it was 84%; in assay [4] (setting [12]), 99%. For the same molecule, in assay [1] (compound at 1 μM, […] [3H]Spiperone), the “Inhibition of ligand binding, Dopamine D2L (percent inhibition of specific binding)” value was 80%.
Take `CN1CCc2c(c3cc(Cl)ccc3n2C/C(=C\CCO)c2ccc(F)cc2)C1` [Compound No. 348, (Z)-5-(8-chloro-2-methyl-3,4-dihydro-1H-pyrido[4,3-b]indol-5(2H)-yl)-4-(4-fluorophenyl)pent-3-en-1-ol]: the “Histamine Binding (1 μM) H1, percent inhibition of specific binding” value on histamine receptor H1 came out at 38%. Moreover, the inhibition at 1 µM on histamine receptor H1 (setting [5]) was determined as 32%; in assay [1] (setting [6]), 18%; in assay [2] (setting [7]), 73%; in assay [3] (setting [8]), 92%; in assay [4] (setting [9]), 105%. The “Inhibition of ligand binding, Dopamine D2L” value in assay [1] (setting [13]) was 29%.
Turning to `Cc1ccc2[nH]c3c(c2c1)CN(C)CC3` [Compound 3, 2,8-Dimethyl-2,3,4,5-tetrahydro-1H-pyrido[4,3-b]indole], the inhibition at 1 µM worked out at 30% on histamine receptor H1 (read-out: Histamine Binding (1 μM) H1, percent inhibition of specific binding); 14% in assay [1] (read-out: Inhibition of ligand binding, Dopamine D2L); 6% in assay [2] (read-out: Histamine Binding (1 μM) H2, percent inhibition of specific binding); 58% in assay [3] (read-out: Inhibition of ligand binding, Adrenergic α2A); 91% in assay [4] (read-out: Inhibition of ligand binding, Adrenergic α2B).
